Legend:
[1] = system: neuropathic rats (sciatic nerve constriction), nerve-injured paw; assay: Sciatic nerve constriction model of peripheral neuropathy, mechanical (paw pressure) and thermal (plantar) hyperalgesia; type: in vivo, Sprague Dawley rats; conditions: for ED50: Rattus norvegicus, read-out: ED50 (antinociceptive potency); for ED50 / ED50 (antinociceptive potency): from % MPE vs. log dose curves; for antinociception in response to mechanical and thermal noxious stimuli on the nerve-injured paw: 1, 2, 4, 8 mg/kg IP
Procedure: (§1) Sprague Dawley (about 90 days old; 350 g) male rats were used (8 rats/drug/experimental group). R,S-norketamine, S-norketamine, R-norketamine (Yaupon Therapeutics Inc.) and R,S-ketamine (Sigma) were dissolved in saline and injected intraperitoneally (IP, 1 ml/kg). Each rat received four doses of a drug (1, 2, 4, 8 mg/kg; repeated block Latin square design; 48 h intervals). Saline served as control.
A sciatic nerve constriction model of peripheral neuropathy previously employed was used [Benett and Xie, 1988]. Briefly, under pentobarbital anesthesia (40 mg/kg, IP) the ligation of sciatic nerve and sham surgery were performed on the left and right hind paws, respectively. Proximal to the sciatic trifuracation, nerve (7 mm) was freed from adhering tissue and four loose ligatures were tied around nerve (1 mm apart) with 4.0 chromic gut, barely constricting the diameter of the nerve. The incision was closed in layers. […] No severe motor impairment was observed.
The analgesic properties of drugs were determined in neuropathic rats. Responsiveness to both mechanical and thermal noxious stimulations was determined in separate groups of rats. Rats were trained on three occasions before initiation of the study. Experiments were performed on days 7, 9, 11 and 14 of recovery from surgery (as this is the time of maximal hyperalgesia [Holtman et al., 2003]). Responses were assessed prior to (baseline, taken twice) and at 15-120 min after injection. The left and right paws were tested alternatively in each rat.
Mechanical hyperalgesia was measured using an increasing amount of weight to the paw [Randall and Selitto, 1957]. The hind paw was placed between a flat surface and a blunt pointer in the Basile Analgesimeter (UGO Basile) and increasing pressure (32 g/s) was applied to the dorsal side of the paw. Vocalization was used as end-point [vocalization threshold, VT (g)]. Cut-off at 300 g prevented tissue damage.
The thermal hyperalgesia was measured by plantar test which used a ramp heat stimulus [Hargreaves et al., 1988]. The radiant heat (60% intensity) was positioned under the glass floor directly beneath the plantar hind paw in Plantar Stimulator Analgesia Meter (IITC, Life Science). Latency of paw withdrawal from the heat source was measured [paw withdrawal threshold, PWT (s)]. A cut-off at 20 s prevented tissue damage.
All data were normalized for preinjection baseline values. Areas under the curves (AUC) were calculated for normalized data. Maximum possible effect was calculated as % MPE=(post drug response−baseline/cut off−baseline)×100. ED50 was calculated from % MPE vs. log dose curves. All data were presented as mean ±SEM of 8 rats. The statistical analysis was performed with use of one and two-way repeated measures analysis of variance (ANOVA), post hoc Student Newman Keulus (SNK), Dunnan and t tests.

intact (unoperated) rats [2] = assay: Ataxia, behavioral rating scale, intact rats; type: in vivo, Sprague Dawley rats; conditions: pilot study
Procedure: as §1
(§2) The behavioral effects of drugs were determined in intact (unoperated) rats. Locomotor activity was determined using the Opto-Varimex infrared photocell-based activity monitor (Columbus Instrument). All activities were scored during 5 min sessions, prior to and 15, 60 and 120 min after injection. All testing were conducted between 10:00-13:00. Assessments were performed in 48 h intervals. Ataxia was determined at 0, […] after injection. The modified behavioral scale [Sturgon et al., 1979] was used for quantification (Table 1).

intact (unoperated) rats [3] = assay: Locomotor activity in intact rats (Opto-Varimex activity monitor); type: in vivo, Sprague Dawley rats; conditions: highest dose 8 mg/kg IP
Procedure: as §1, §2

Sprague-Dawley rats [4] = assay: Tail-flick test (radiant thermal stimulus); type: in vivo; conditions: for antinociception, drug alone, IP: morphine 2-10 mg/kg, S-norketamine 0.75-3 mg/kg; for antinociception, drug alone, IT: morphine 3-30 μg, S-norketamine 10-100 μg
Procedure: A dose response curve was generated by determining the analgesic effects of combining a constant dose of an opioid (e.g., morphine) along with an increasing dose of R,S-norketamine, Male and female Sprague-Dawley rats (n=8/sex) all with an approximate age of 85 to 90 days. Each rat should be weighed, prior to being subjected to any tests, on the day of the experiment. Experiments were performed in 72 hour intervals, and prior to the test, the rats were habituated for three days to handling and the tail-flick procedure without heat exposure. • 1 The tail-flick apparatus (IITC Model 33, Life Science, Woodland Hills, Calif.) is pre-warmed for at least 30 minutes. • 2 The intensity of the lamp is adjusted so that baseline tail-flick latency for the rats is equal to approximately 2.0 seconds. […] Tail-flick latency (“TFL”) is measured twice in an approximate 15 minute intervals and an average of the two times determines the baseline. • 8 Once the baseline value is determined, TFL is measured, following the injection of drugs, at times 15, 30, 60 and 120 minutes.
• Normalize data for baseline value (postinjection value at each time point−average preinjection baseline). • Calculate area under the curve (AUC0-120min) for normalized data. • Calculate maximum area under the curve (AUCmax), assuming 10 second response for each time point. • Calculate % MPE=(AUC0-120min)/(AUCmax)×100. • Post-injection thresholds are compared to the baseline threshold using paired t-test. • The difference between doses will be analyzed by 2 way RM ANOVA. • The difference between sex will be analyzed by 2 way RM ANOVA. • All data are presented as mean ±SEM of n rats.
• Normalized data (NOR): subtract average baseline from each value NOR=(post-injection TFL)−(pre-injection baseline) • 12 Percent maximum effect (MPE): • % MPE=(post-injection value−pre-injection baseline)/(cut-off−pre-injection baseline)×100% • 13 Area under the time action curve (AUC0-120 min) calculated by trapezoidal rule • Individual AUC0-120 min.=(average value over the time interval)×(time interval) • Total AUC0-120 min.: sum of individual AUC • Example: AUC0-120 min., % MPE=(15-0 min)×[(MPE0+MPE15)×½]+(30−15)×[(MPE30+MPE15)×½]
A study was undertaken to determine whether S-norketamine (“norKET”) enhances the analgesic effect of morphine (“MOR”). […] Saline (vehicle) served as a control. Responsiveness to thermal noxious stimuli was determined using the tail-flick assay (baseline tail-flick latency (TFL) ˜2-3 s; cut off TFL=10 s). TFL was determined at 0, 15, 30, 60, 90, and 120 min.
Male Sprague-Dawley rats, approximately 90 days old, weighting about 300 g were used. Intrathecal catheter: Chronic catheterization of the spinal subarachnoid space was performed according to Yaksh and Rudy (1976). Drugs: Morphine sulfate (Mallinckrodt) and S-norketamine hydrochloride (Yaupon Therapeutics, Inc.) were dissolved in saline. Saline served as control. Doses refer to salt forms.
Graded doses of morphine and S-norketamine alone as well as a fixed dose of morphine combined with various doses of S-norketamine were administered […] (IP) or intrathecally (IT) in volumes equal to 1 ml/kg and 10 μl, respectively. Doses were balanced by Latin square design: 2× (4×4). Injections were made at weekly intervals.
Tail flick latencies (TFL) were measured using a standard tail-flick apparatus (LifeScience). Preinjection baseline and cut-off times were equal to 2-3 s and 10 s, respectively. TFL was assessed twice prior to (baseline) and at fixed time points after injection. All data were normalized for baseline. The areas under the time action curves (AUC0-120 min) were calculated for normalized data. The percent of maximum effect was calculated as % MPE=[(TFL-baseline)/(10-baseline)×100] at each time point. Data are presented as mean ±SEM of (n) rats.

[5] = Aun, 1999, cited from earlier work
[6] = Plasma levels of S-norketamine versus antinociception (pilot study); type: in vivo; conditions: after IP administration in rat
Procedure: Plasma concentration of S-norketamine 200-700 ng/ml was associated with the significant analgesic effect after IP administration in rat.

Sprague-Dawley rats [7] = assay: Opioid tolerance development, tail-flick test; type: in vivo; conditions: for effect on oxycodone tolerance development: S-norketamine given with oxycodone, IP
Procedure: A tail flick test as described above was administered intrapertoneally to eight Sprague-Dawley rats as described above. The * symbol denotes a statistically difference with oxycodone and norketamine combined versus the two drugs used alone. Data were analyzed with the SNK method, with P less than 0.05. […] A tail flick test as described above was administered intrapertoneally to eight Sprague-Dawley rats as described above. The * symbol denotes a difference with oxycodone used alone as compared to the combination of oxycodone with S norketameine and the +symbol denotes a difference from day 1. Data were analyzed with the SNK method, with P less than 0.05.

rat = assay: Analgesic dose of norketamine in the rat; type: in vivo
Procedure: An “optimal” dose is defined as a dose of an analgesic, when taken alone, is sufficient to provide analgesic relief. In the rat, for example, an optimal dose of norketamine is about 8 mg/kg intraperitoneally (IP). A “sub-optimal” dose is defined as about 1 to about 60% of the optimal dose used to induce analgesia; more preferably about 5% to about 40%, and even more preferably about 10% to about 20%. A “sub-analgesic” does is defined as a dose at which little to no analgesic effect is provided. For example, a sub-analgesic dose of norketamine is less than about 3 mg/kg. Typically, a sub-analgesic dose correlates with less than about 5 AUC units or less than about 5% MPE (maximum possible effect).

NMDA receptor = conditions: Ebert et al., 1997; cited from earlier work
rats = conditions: intravenous or intraspinal; cited from earlier work

## CNC1(c2ccccc2Cl)CCCCC1=O (racemic) [R,S-ketamine, 2-(2-chlorophenyl)-2-(methylamino)-cyclohexanone, reference compound]
[1]; nerve-injured paw, IP
  ED50: 15.8 ± 0.38 mg/kg
Intact (unoperated) rats [2]
  ataxia: marked ataxia

## NC1(c2ccccc2Cl)CCCCC1=O (racemic) [R,S-norketamine, 2-(2-chlorophenyl)-2-amino-cyclohexanone]
[1]; nerve-injured paw, IP
  ED50: 11.3 ± 0.23 mg/kg
  duration of antinociceptive effect: > 2 h
[1]; nerve-injured paw
  antinociception in response to mechanical and thermal noxious stimuli on the nerve-injured paw: dose-related antinociception
[1]; IP
  antinociception on the control (sham-operated) paw: No antinociception
Intact (unoperated) rats [3]
  motor (depressive) / locomotor effect: less pronounced
Intact (unoperated) rats [2]
  ataxia: no ataxia

## CN1CC[C@]23c4c5ccc(O)c4O[C@H]2[C@@H](O)C=C[C@H]3[C@H]1C5 [Morphine, reference compound]
Sprague-Dawley rats [4]; IP
  antinociception, drug alone, IP: dose-related antinociception
Sprague-Dawley rats [4]
  antinociception, drug alone, IT: dose-related antinociception
Sprague-Dawley rats [4]; morphine alone 30 μg IT
  % MPE: 60%
Sprague-Dawley rats [4]; morphine alone 10 mg/kg IP
  % MPE: 100%

## N[C@@]1(c2ccccc2Cl)CCCCC1=O [R-norketamine]
[1]; nerve-injured paw
  antinociception in response to mechanical and thermal noxious stimuli on the nerve-injured paw: attenuated, in dose-related fashion
[1]; nerve-injured paw, IP
  ED50 (antinociceptive potency): 51.1 ± 0.54 mg/kg
[1]; IP
  antinociception on the control (sham-operated) paw: Neither drug had effect

## CN[C@]1(c2ccccc2Cl)CCCCC1=O [S-ketamine, reference compound]
[5]
  potency relative to R-ketamine: twice as potent as R-ketamine

## N[C@]1(c2ccccc2Cl)CCCCC1=O [S-norketamine]
[1]; nerve-injured paw
  antinociception in response to mechanical and thermal noxious stimuli on the nerve-injured paw: attenuated, in dose-related fashion
[1]; nerve-injured paw, IP
  ED50 (antinociceptive potency): 7.3 ± 0.18 mg/kg
[1]; IP
  antinociception on the control (sham-operated) paw: Neither drug had effect
[6]
  plasma concentration associated with the significant analgesic effect: 200 to 700 ng/mL
Intact (unoperated) rats [3]
  motor (depressive) / locomotor effect: less for S than R isomer
Intact (unoperated) rats [2]
  ataxia: no ataxia
Sprague-Dawley rats [4]; IP, comparison with Holtman et al., 2003
  ability to enhance morphine analgesia compared with ketamine-morphine interaction: greater than that previously demonstrated for ketamine-morphine
Sprague-Dawley rats [4]; IP
  antinociception, drug alone, IP: did not produce an antinociceptive effect
Sprague-Dawley rats [4]
  antinociception, drug alone, IT: did not produce an antinociceptive effect
Sprague-Dawley rats [4]; S-norketamine 0.75-3 mg/kg IP with morphine 3 mg/kg IP
  potentiation of the antinociceptive effect of low dose morphine, IP: dose-dependently potentiated
Sprague-Dawley rats [4]; S-norketamine 10-100 μg IT with morphine 0.5 μg IT
  potentiation of the antinociceptive effect of low dose morphine, IT: dose-dependently potentiated
Sprague-Dawley rats [7]; S-norketamine given with morphine
  effect on morphine tolerance: reduction of morphine tolerance
Sprague-Dawley rats [7]
  effect on oxycodone tolerance development: tolerance of oxycodone is inhibited
Sprague-Dawley rats [7]; listed as S-norketamine HCl
  effect on oxycodone tolerance development: attenuation of oxycodone tolerance development

## NC1(c2ccccc2Cl)CCCCC1=O (centres unmarked) [norketamine, 2-(2-chlorophenyl)-2-amino-cyclohexanone]
rat; in vivo
  sub-analgesic dose (little to no analgesic effect): less than 3 mg/kg
rat; intraperitoneally (IP)
  optimal dose (sufficient alone to provide analgesic relief): about 8 mg/kg
NMDA receptor
  NMDA receptor binding relative to ketamine enantiomers: less tightly than either S- or R-ketamine
[5]; speculated
  anesthetic and analgesic potency relative to ketamine: one third that of ketamine
rats
  adverse sequelae relative to an equal dose of ketamine: fewer of the adverse sequelae

From patent publication US20080132531A1, “SYNERGISTIC COMBINATIONS OF N[…] OPIOID ANALGESICS” (Yaupon Therapeutics, Inc., priority 2005, published 2008)
